pEC50: −log10 of the molar value. Where two headings read alike, the source gives them in different places. Numbered stars: 1 amine (or outer) side, 2 acyl side, 3 side chain; on linkers, the order of the positions; unused ones are H or OH. Square brackets hold non-standard residues; d marks the D form. Side chains are listed from the residue outwards. Peptide text beside a SMILES is read from it. * marks the point of attachment. C20 diacid = O=C(O)CCCCCCCCCCCCCCCCCCC(=O)*; C18 diacid = O=C(O)CCCCCCCCCCCCCCCCC(=O)*; αMePhe(2-F) = C[C@](N)(Cc1ccccc1F)C(=O)O; γGlu = O=C(O)[C@H](CCC(=O)[*:2])N[*:1]; αMeL = CC(C)C[C@](C)(N)C(=O)O; AEEA = NCCOCCOCC(=O)O; Aib = CC(C)(N)C(=O)O
What was measured:
in vivo [1] = conditions: male, Sprague Dawley, rat, plasma, sc, 50 nmol/kg
Description: (§1) The pharmacokinetics of select Examples are evaluated following a single subcutaneous (SC) administration of 50 nMol/kg (dissolved in PBS, pH 7.4) or single 1 μmol/kg (mixed with 250 mM sodium decanoate (“C10”) and 12 mg/mL soybean trypsin inhibitor (SBTI)) intrajejunal (IJ) administration to male Sprague Dawley rats. […] Pharmacokinetic parameters are calculated using individual plasma concentrations. A qualified LC/MS method that measures the intact mass of the Example is used to determine plasma (K3 EDTA) concentrations. Each Example is tested with an analog peptide as an internal standard. Immunoaffinity based precipitation with anti-GIP/GLP1 antibodies is used to extract each test peptide and analog.

[2] = test system: CD8+ T cell depleted peripheral blood mononuclear cells; test: CD4+ T cell assay for potential clinical immunogenicity; conditions: for frequency of positive CD+ T cell response (CDI>2.5): CD4+ T cell assay
Description: (§2) The purpose of this study is to determine the relative potential for clinical immunogenicity of a compound.
(§3) CD8+ T cell depleted peripheral blood mononuclear cells are prepared and labeled with Carboxyfluorescein Diacetate Succinimidyl Ester (CFSE, Invitrogen) from a cohort of 10 healthy donors. […] Cultures are incubated for 7 days at 37° C. with 5% CO2. On day 7, samples are analyzed by flow cytometry using High Throughput Sampler (HTS). Data is analyzed using FlowJo® Software (FlowJo, LLC, TreeStar).

[3] = single subcutaneous 200 nMol/kg, male CD-1 mice
Description: (§4) The pharmacokinetics of select Examples are evaluated following a single subcutaneous administration of 200 nMol/kg to male CD-1 mice. […] Plasma (K3 EDTA) concentrations are determined using a qualified LC/MS method that measures the intact mass of the Examples. […] Instruments are combined for LC/MS detection.

in vivo [4] = conditions: male, CD-1, mouse, plasma, sc, 200 nmol/kg
Description: as §4

[5] = single subcutaneous 50 nMol/kg, male Sprague Dawley rats; mean (SD)
Description: as §1

in vivo [6] = conditions: male, cynomolgus monkey, plasma, sc, 50 nmol/kg
Description: (§5) Pharmacokinetics in male Cynomolgus Monkeys The pharmacokinetics of select Examples are evaluated following a single subcutaneous administration of 50 nMol/kg to male cynomolgus monkeys. […] Peptide plasma (K3 EDTA) concentrations are determined using a qualified LC/MS method that measured the intact mass of the compound. […] Instruments are combined for LC/MS detection.

[7] = single intrajejunal 1 μmol/kg with 250 mM C10 and 12 mg/mL SBTI, male Sprague Dawley rats; for Cmax/D: mean (SD)
Description: as §1

[8] = Proteolytic stability assay in 1% rat small intestinal fluid (rSIF); conditions: for percentage of peptide not cleaved using rSIF: 0 min, 1% rSIF, 37° C.; for remaining at 0.05 h, 0.4 mg/mL / remaining at 0.25 h, 0.4 mg/mL / remaining at 1 h, 0.4 mg/mL: rat, real gastrointestinal fluid or homogenate, pH 8
Description: The stability of peptides are compared in 1% rat small intestinal fluid (rSIF). The amount of intact peptide is measured for a sample peptide at 0, 3, 15, and 30 minutes to assess proteolytic stability. The amount of intact peptide for a sample peptide is measured in 90% pig small intestinal fluid (pSIF) at 0, 30, 45, and 60 minutes to assess the proteolytic stability.
Peptides are prepared at 0.4 mg/mL in 50 mM Tris pH8.0. […] The mixture is incubated at 37° C. at 150 rpm. Thirty μL of each sample are removed and placed into a new tube before the rSIF is added and at […]. At each time point, the reaction was quenched by 1% TFA in 50% ACN at 1:1. The samples are diluted 100 times using dilution buffer (1:1 of 1% TFA in 50% ACN: 50 mM Tris pH8) and ready for analysis using mass spectrometry (MS).
The data analysis is performed using MassLynx.

in vivo [9] = conditions: male, Sprague Dawley, rat, plasma, other: intrajejunal, 1 umol/kg
Description: as §1

[10] = single subcutaneous 50 nMol/kg, male cynomolgus monkeys
Description: as §5

human GLP-1R = human GLP-1R (Homo sapiens, UniProt P43220); test: GLP-1R CHO cell β-arrestin recruitment assay; format: cell-based; parameters: host or cells: CHO-K1 PathHunter cells, assay-ready frozen; conditions: for hGLP1R B-Arrestin2 % Top: normalized to GLP-1 maximum control
Chain of human GLP-1R (P43220 24-463): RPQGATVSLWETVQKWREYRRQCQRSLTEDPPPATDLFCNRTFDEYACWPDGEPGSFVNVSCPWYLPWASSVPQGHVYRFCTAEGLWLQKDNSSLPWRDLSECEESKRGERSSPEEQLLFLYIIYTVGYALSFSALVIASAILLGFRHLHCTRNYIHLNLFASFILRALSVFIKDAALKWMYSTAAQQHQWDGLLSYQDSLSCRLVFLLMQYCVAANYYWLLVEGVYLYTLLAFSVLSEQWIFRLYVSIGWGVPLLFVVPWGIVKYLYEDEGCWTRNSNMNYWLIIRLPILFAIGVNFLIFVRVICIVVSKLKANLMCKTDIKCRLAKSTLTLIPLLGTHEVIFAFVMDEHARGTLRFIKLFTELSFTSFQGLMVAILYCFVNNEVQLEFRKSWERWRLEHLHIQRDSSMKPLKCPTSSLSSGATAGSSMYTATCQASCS
Outline: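 PathHunter CHO-K1 cells with ProLink-tagged human GLP-1R and enzyme-acceptor-tagged β-arrestin-2 treated with serially diluted peptides in assay buffer containing 0.1% hydrolyzed casein, 90 min at 37 °C.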

[11] = test system: CD8+ T cell depleted peripheral blood mononuclear cells
Description: as §2, §3

[12] = Examples 10 uM, KLH 0.33 μM, 7 days

`CC[C@H](C)[C@H](NC(=O)[C@H](CC(C)C)NC(=O)[C@H](Cc1ccc(O)cc1)NC(=O)[C@@H](CCC(=O)O)NC(=O)[C@@H](NC(=O)[C@H](Cc1ccccc1)NC(=O)[C@H](CCC(=O)O)NC(=O)C(C)(C)NC(=O)[C@H](CCC(N)=O)NC(=O)[C@H](C)NC(=O)[C@H](CCCCNC(=O)COCCOCCNC(=O)COCCOCCNC(=O)CC[C@H](NC(=O)CCCCCCCCCCCCCCCCCCC(=O)O)C(=O)O)NC(=O)[C@H](CCCN)NC(=O)[C@H](CC(=O)O)NC(=O)[C@H](CC(C)C)NC(=O)[C@](C)(CC(C)C)NC(=O)[C@@H](NC(=O)[C@H](CO)NC(=O)[C@H](Cc1ccc(O)cc1)NC(=O)[C@H](CC(=O)O)NC(=O)[C@H](CO)NC(=O)[C@@H](NC(=O)[C@](C)(Cc1ccccc1F)NC(=O)[C@@H](NC(=O)CNC(=O)[C@H](CCC(=O)O)NC(=O)C(C)(C)NC(=O)[C@@H](N)Cc1ccc(O)cc1)[C@@H](C)O)[C@@H](C)O)[C@@H](C)CC)[C@@H](C)CC)C(=O)N[C@@H](CCC(=O)O)C(=O)NCC(=O)NCC(=O)N1CCC[C@H]1C(=O)N[C@@H](CO)C(=O)N[C@@H](CO)C(=O)NCC(=O)N[C@@H](C)C(=O)N1CCC[C@H]1C(=O)N1CCC[C@H]1C(=O)N1CCC[C@H]1C(=O)N[C@@H](CO)C(N)=O` [Example 3] showed a CL/F (in vivo [1]) of 2.7 mL/h/kg, a Tmax (in vivo [1]) of 21.3 h and a half-life (in vivo [1]) of 32.1 h. The “frequency of positive CD+ T cell response (CDI>2.5)” value (“frequency” for short) [2] was “low”, the “% Donor Response (CD4+ T cell response)” value [2, 12] was 0% and the AUCINF_D_obs [3] was 158.49 hr*kg*nmol/L/nmol. For the same compound, the Cmax/D [3] was 4.42 kg*nmol/L/nmol, the CL/F (in vivo [4]) was 6.31 mL/h/kg and the Tmax (in vivo [4]) was 6 h. For the same compound, the half-life (in vivo [4]) was 15 h, the AUCINF_D_obs [5] was 371.8 (21.8) hr*kg*nmol/L/nmol and the Cmax/D [5] was 4.71 (0.50) kg*nmol/L/nmol. The CL/F (in vivo [6]) was 0.29 mL/h/kg, the Tmax (in vivo [6]) was 30 h and the half-life (in vivo [6]) was 181 h. The AUCINF_D_obs [7] was 8.45 hr*kg*nmol/L/nmol, the Cmax/D [7] was 0.47 (0.16) kg*nmol/L/nmol and the “percentage of peptide not cleaved using rSIF” value [8] was 100%. For the same compound, the remaining at 0.05 h, 0.4 mg/mL [8] was 68.8%, the remaining at 0.25 h, 0.4 mg/mL [8] was 25.8% and the remaining at 1 h, 0.4 mg/mL [8] was 0.3%. For the same compound, the Tmax (in vivo [9]) was 0.33 h, the AUCINF_D_obs [10] was 3420 hr*kg*nmol/L/nmol and the Cmax/D [10] was 11.38 kg*nmol/L/nmol.

With `CC[C@H](C)[C@H](NC(=O)[C@H](CC(C)C)NC(=O)[C@H](Cc1ccc(O)cc1)NC(=O)[C@@H](CCC(=O)O)NC(=O)[C@@H](NC(=O)[C@H](Cc1ccccc1)NC(=O)[C@H](CCC(=O)O)NC(=O)C(C)(C)NC(=O)[C@H](CCC(N)=O)NC(=O)[C@H](C)NC(=O)[C@H](CCCCNC(=O)COCCOCCNC(=O)COCCOCCNC(=O)CC[C@H](NC(=O)CCCCCCCCCCCCCCCCCCC(=O)O)C(=O)O)NC(=O)[C@H](CCC(=O)O)NC(=O)[C@H](CC(=O)O)NC(=O)[C@H](CC(C)C)NC(=O)[C@](C)(CC(C)C)NC(=O)[C@@H](NC(=O)[C@H](CO)NC(=O)[C@H](Cc1ccc(O)cc1)NC(=O)[C@H](CC(=O)O)NC(=O)[C@H](CO)NC(=O)[C@@H](NC(=O)[C@](C)(Cc1ccccc1F)NC(=O)[C@@H](NC(=O)CNC(=O)[C@H](CCC(=O)O)NC(=O)C(C)(C)NC(=O)[C@@H](N)Cc1ccc(O)cc1)[C@@H](C)O)[C@@H](C)O)[C@@H](C)CC)[C@@H](C)CC)C(=O)N[C@@H](CCC(=O)O)C(=O)NCC(=O)NCC(=O)N1CCC[C@H]1C(=O)N[C@@H](CO)C(=O)N[C@@H](CO)C(=O)NCC(=O)N[C@@H](C)C(=O)N1CCC[C@H]1C(=O)N1CCC[C@H]1C(=O)N1CCC[C@H]1C(=O)N[C@@H](CO)C(N)=O` [Example 1] (H-Y[Aib]EGT[αMePhe(2-F)]TSDYSI[αMeL]LDEK([AEEA-AEEA-γGlu-C20 diacid])AQ[Aib]EFI[dE]YLIEGGPSSGAPPPS-NH2) the CL/F (in vivo [1]) was 3.42 mL/h/kg, the Tmax (in vivo [1]) was 21.3 h and the half-life (in vivo [1]) was 44.7 h. The pEC50 (human GLP-1R) was 8.30, the “hGLP1R B-Arrestin2 % Top” value (human GLP-1R) was 105% and the “frequency” value [2] was “low”. For the same compound, the “% Donor Response (CD4+ T cell response)” value [2, 12] was 9%, the “Median Response Strength in positive donors (CDI)” value [2, 12] was 0.7 CDI and the AUCINF_D_obs [3] was 135.61 hr*kg*nmol/L/nmol. For the same compound, the Cmax/D [3] was 4.84 kg*nmol/L/nmol, the CL/F (in vivo [4]) was 7.37 mL/h/kg and the Tmax (in vivo [4]) was 12 h. The half-life (in vivo [4]) was 17.5 h, the AUCINF_D_obs [5] was 294.2 (30.0) hr*kg*nmol/L/nmol and the Cmax/D [5] was 3.34 (0.22) kg*nmol/L/nmol. It also gave a CL/F (in vivo [6]) of 0.69 mL/h/kg, a Tmax (in vivo [6]) of 18 h and a half-life (in vivo [6]) of 125 h. For the same compound, the AUCINF_D_obs [7] was 1.31 hr*kg*nmol/L/nmol, the Cmax/D [7] was 0.08 (0.05) kg*nmol/L/nmol and the “percentage of peptide not cleaved using rSIF” value [8] was 100%. It also gave a remaining at 0.05 h, 0.4 mg/mL [8] of 82.4%, a remaining at 0.25 h, 0.4 mg/mL [8] of 41.4% and a remaining at 1 h, 0.4 mg/mL [8] of 1.6%. The Tmax (in vivo [9]) was 1.33 h, the AUCINF_D_obs [10] was 1458 hr*kg*nmol/L/nmol and the Cmax/D [10] was 6.5 kg*nmol/L/nmol.

For `CC[C@H](C)[C@H](NC(=O)[C@H](CC(C)C)NC(=O)[C@H](Cc1ccc(O)cc1)NC(=O)[C@H](CCC(=O)O)NC(=O)[C@@H](NC(=O)[C@H](Cc1ccccc1)NC(=O)[C@H](C)NC(=O)C(C)(C)NC(=O)[C@H](CCC(N)=O)NC(=O)[C@H](C)NC(=O)[C@H](CCCCNC(=O)COCCOCCNC(=O)COCCOCCNC(=O)CC[C@H](NC(=O)CCCCCCCCCCCCCCCCC(=O)O)C(=O)O)NC(=O)[C@H](CCCCN)NC(=O)[C@H](CC(=O)O)NC(=O)[C@H](CC(C)C)NC(=O)[C@H](CC(C)C)NC(=O)[C@@H](NC(=O)[C@H](CO)NC(=O)[C@H](Cc1ccc(O)cc1)NC(=O)[C@H](CC(=O)O)NC(=O)[C@H](CO)NC(=O)[C@@H](NC(=O)[C@H](Cc1ccccc1)NC(=O)[C@@H](NC(=O)CNC(=O)[C@H](CCC(=O)O)NC(=O)C(C)(C)NC(=O)[C@@H](N)Cc1ccc(O)cc1)[C@@H](C)O)[C@@H](C)O)[C@@H](C)CC)[C@@H](C)CC)C(=O)N[C@@H](C)C(=O)NCC(=O)NCC(=O)N1CCC[C@H]1C(=O)N[C@@H](CO)C(=O)N[C@@H](CO)C(=O)NCC(=O)N[C@@H](C)C(=O)N1CCC[C@H]1C(=O)N1CCC[C@H]1C(=O)N1CCC[C@H]1C(=O)N[C@@H](CO)C(N)=O` [Example 316] (H-Y[Aib]EGTFTSDYSILLDKK([AEEA-AEEA-γGlu-C18 diacid])AQ[Aib]AFIEYLIAGGPSSGAPPPS-NH2), the EC50 (human GLP-1R; CHO-K1 cells, PathHunter β-arrestin-2 recruitment, 0.1% casein, read-out: hGLP1R B-Arrestin2 Rel EC50 uM (SEM, n)) was 0.00608 µM, the “hGLP1R B-Arrestin2 % Top” value (human GLP-1R) was 26.1% and the “frequency” value [11] was “low”.

Source: patent US12252524B2, “GIP/GLP1 co-agonist compounds” (Eli Lilly and Company, priority 2018, dated 2025)
